Results reported in patent US4468511A, “C-20- And C-23-Modified macrolide derivatives” (Eli Lilly and Company, priority 1983, dated 1984).
≈ marks a conversion by molar mass, not a printed value. Where two headings read alike, the source gives them in different places.

Experiments:
Escherichia coli EC14 = assay: MIC, standard agar-dilution assay; assay type: cell-based; conditions: Escherichia coli, EC14
Protocol: (§1) Certain of the derivatives are active against some gram-negative bacteria, such as Pasteurella species. The MIC's in Table II were determined by standard agar-dilution assays. The MIC's in Table III were obtained using a conventional broth-dilution microtiter test.

Escherichia coli TEM = assay: MIC, standard agar-dilution assay; assay type: cell-based; conditions: Escherichia coli
In short: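 Antibacterial activity toward the gram-negative organism Escherichia coli was assessed by conventional agar dilution. The MIC, reported in ug/mL, is the minimum compound concentration on agar that prevents growth.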

[1] = system: Klebsiella pneumoniae KAE; assay: MIC, standard agar-dilution assay; assay type: cell-based; conditions: Klebsiella pneumoniae
In short: (§2)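 Two formats were used. Broth dilution in microtiter plates served for Pasteurella and Mycoplasma, while agar dilution served for Klebsiella.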

[2] = system: Klebsiella pneumoniae X26; assay: MIC, standard agar-dilution assay; assay type: cell-based; conditions: Klebsiella pneumoniae, X26
In short: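 Method depends on organism. Klebsiella pneumoniae was assayed on agar. Pasteurella spp. and Mycoplasma gallisepticum were assayed in broth microtiter dilution.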

[3] = system: Staphylococcus aureus V41; assay: MIC, standard agar-dilution assay; assay type: cell-based; conditions: Staphylococcus aureus, V41
Protocol: as §1

[4] = system: Staphylococcus aureus X1.1; assay: MIC, standard agar-dilution assay; assay type: cell-based; conditions: Staphylococcus aureus, X1.1
In short: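 A standard agar-dilution assay was used to test compounds against the Staphylococcus aureus isolate X1.1. Bacterial growth on agar with different compound concentrations was assessed, and the minimum inhibitory concentration was recorded in ug/mL.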

[5] = system: Streptococcus Group D X66; assay: MIC, standard agar-dilution assay; assay type: cell-based
Protocol: as §1

[6] = system: Streptococcus pneumoniae Park I; assay: MIC, standard agar-dilution assay; assay type: cell-based; conditions: Streptococcus pneumoniae
Protocol: as §1

[7] = system: Streptococcus pyogenes 9960; assay: MIC, standard agar-dilution assay; assay type: cell-based; conditions: 9960
Protocol: as §1

[8] = system: Streptococcus pyogenes C203; assay: MIC, standard agar-dilution assay; assay type: cell-based; conditions: Streptococcus pyogenes, C203
Protocol: as §1

[9] = system: Haemophilus influenzae 76; assay: MIC, standard agar-dilution assay; assay type: cell-based; conditions: Haemophilus influenzae, 76
Protocol: (§3) The MIC's in Table II were determined by standard agar-dilution assays. The MIC's in Table III were obtained using a conventional broth-dilution microtiter test.

[10] = system: Haemophilus influenzae C.L.; assay: MIC, standard agar-dilution assay; assay type: cell-based; conditions: Haemophilus influenzae
Protocol: as §3

[11] = system: Staphylococcus aureus X400; assay: MIC, standard agar-dilution assay; assay type: cell-based; conditions: Staphylococcus aureus, X400
Protocol: as §3

[12] = system: Staphylococcus epidermidis EPI2; assay: MIC, standard agar-dilution assay; assay type: cell-based; conditions: Staphylococcus epidermidis, EPI2
Protocol: as §3

[13] = system: Staphylococcus aureus S13E; assay: microbe, parasite or virus in culture; assay type: cell-based
Protocol: as §3

[14] = system: Staphylococcus epidermidis EPI1; assay: microbe, parasite or virus in culture; assay type: cell-based; conditions: Staphylococcus epidermidis, EPI1
Protocol: as §3

[15] = system: Mycoplasma gallisepticum 34159; assay: MIC, conventional broth-dilution microtiter test; assay type: cell-based; conditions: Mycoplasmoides gallisepticum, 34159
In short: as §2

[16] = system: Mycoplasma gallisepticum 41313; assay: MIC, conventional broth-dilution microtiter test; assay type: cell-based; conditions: Mycoplasmoides gallisepticum, 41313
In short: as §2

Mycoplasma gallisepticum = assay: MIC, conventional broth-dilution microtiter test; assay type: cell-based; conditions: Mycoplasmoides gallisepticum
In short: as §2

Mycoplasma hyorhinis = assay: MIC, conventional broth-dilution microtiter test; assay type: cell-based; conditions: Mycoplasma
In short: as §2

Mycoplasma synoviae = assay: MIC, conventional broth-dilution microtiter test; assay type: cell-based; conditions: Mycoplasmopsis synoviae
In short: as §2

[17] = system: Pasteurella hemolytica 22C; assay: MIC, conventional broth-dilution microtiter test; assay type: cell-based; conditions: Pasteurella, 22C
In short: as §2

[18] = system: Pasteurella hemolytica 23C; assay: MIC, conventional broth-dilution microtiter test; assay type: cell-based; conditions: Pasteurella, 23C
In short: as §2

[19] = system: Pasteurella hemolytica 41D; assay: MIC, conventional broth-dilution microtiter test; assay type: cell-based; conditions: Pasteurella, 41D
In short: as §2

[20] = system: Pasteurella multocida 17E; assay: MIC, conventional broth-dilution microtiter test; assay type: cell-based; conditions: Pasteurella multocida, 17E
In short: as §2

[21] = system: Pasteurella multocida 22A; assay: MIC, conventional broth-dilution microtiter test; assay type: cell-based; conditions: Pasteurella multocida, 22A
In short: as §2

[22] = system: Pasteurella multocida 40G; assay: MIC, conventional broth-dilution microtiter test; assay type: cell-based; conditions: Pasteurella multocida, 40G
In short: as §2

[23] = system: Pasteurella multocida 60A; assay: MIC, conventional broth-dilution microtiter test; assay type: cell-based; conditions: Pasteurella multocida, 60A
In short: as §2

[24] = system: Pasteurella multocida 68C; assay: MIC, conventional broth-dilution microtiter test; assay type: cell-based; conditions: Pasteurella multocida, 68C
In short: as §2

Staphylococcus aureus = assay: MIC, conventional broth-dilution microtiter test; assay type: cell-based
Protocol: as §1

Streptococcus sp. 80 = assay: MIC, conventional broth-dilution microtiter test; assay type: cell-based; conditions: Streptococcus, SP.80
Protocol: as §1

[25] = system: Streptococcus pyogenes C203; assay: Protection of mice experimentally infected with S. pyogenes C203; assay type: in vivo;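 also: two doses given 1 and 4 hours after infection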
Protocol: Some of the derivatives of this invention have shown in vivo antimicrobial activity against experimentally-induced infections in laboratory animals. When two doses of test compound were administered to mice experimentally infected with S. pyogenes C203, the activity observed was measured as an ED50 value [effective dose in mg/kg to protect 50% of the test animals: see Warren Wick, et al., J. Bacteriol. 81, 233-235 (1961)].

**Q.** How did the MIC (Escherichia coli EC14) turn out when `CCC1CC(C)C(=O)C=CC(C)=CC(COC(=O)Cc2ccccc2)C(CC)OC(=O)CC(O)C(C)C1OC1OC(C)C(O)C(N(C)C)C1O` (stereo not drawn) [Compound 41, 23-O-Phenylacetyl-20-deoxy-20-dihydro-OMT] was run?
**A.** The MIC was 128 mg/L (≈ 182 µM).

**Q.** And the MIC (Escherichia coli TEM)?
**A.** Its MIC is 16 mg/L (≈ 22.8 µM).

**Q.** What about the MIC [1] of the same compound?
**A.** The MIC was over 128 mg/L.

**Q.** And the MIC [2]?
**A.** Its MIC is 4 mg/L (≈ 5.7 µM).

**Q.** What about the MIC [3] of the same compound?
**A.** Its MIC is 0.5 mg/L (≈ 0.712 µM).

**Q.** And the MIC [4]?
**A.** Its MIC is 0.5 mg/L (≈ 0.712 µM).

**Q.** And the MIC [5]?
**A.** Its MIC is 1 mg/L (≈ 1.42 µM).

**Q.** And the MIC [6]?
**A.** The MIC was 0.25 mg/L (≈ 0.356 µM).

**Q.** And the MIC [7]?
**A.** Its MIC is 1 mg/L (≈ 1.42 µM).

**Q.** And the MIC [8]?
**A.** Its MIC is 0.5 mg/L (≈ 0.712 µM).

**Q.** And the MIC [9]?
**A.** The MIC was 8 mg/L (≈ 11.4 µM).

**Q.** What about the MIC [10] of the same compound?
**A.** Its MIC is 8 mg/L (≈ 11.4 µM).

**Q.** What about the MIC [11] of the same compound?
**A.** The MIC was 0.5 mg/L (≈ 0.712 µM).

**Q.** And the MIC [12]?
**A.** The MIC was 0.5 mg/L (≈ 0.712 µM).

**Q.** What about the MIC [13] of the same compound?
**A.** Its MIC is 0.5 mg/L (≈ 0.712 µM).

**Q.** And the MIC [14]?
**A.** Its MIC is 0.5 mg/L (≈ 0.712 µM).

**Q.** What about the MIC [15] of the same compound?
**A.** The MIC was 50 mg/L (≈ 71.2 µM).

**Q.** And the MIC [16]?
**A.** The MIC was 50 mg/L (≈ 71.2 µM).

**Q.** What about the MIC (Mycoplasma gallisepticum) of the same compound?
**A.** Its MIC is 3.12 mg/L (≈ 4.45 µM).

**Q.** What about the MIC (Mycoplasma hyorhinis) of the same compound?
**A.** The MIC was 50 mg/L (≈ 71.2 µM).

**Q.** What about the MIC (Mycoplasma synoviae) of the same compound?
**A.** The MIC was 3.12 mg/L (≈ 4.45 µM).

**Q.** What about the MIC [17] of the same compound?
**A.** Its MIC is 12.5 mg/L (≈ 17.8 µM).

**Q.** What about the MIC [18] of the same compound?
**A.** Its MIC is 12.5 mg/L (≈ 17.8 µM).

**Q.** And the MIC [19]?
**A.** The MIC was 12.5 mg/L (≈ 17.8 µM).

**Q.** What about the MIC [20] of the same compound?
**A.** The MIC was 12.5 mg/L (≈ 17.8 µM).

**Q.** What about the MIC [21] of the same compound?
**A.** The MIC was 25 mg/L (≈ 35.6 µM).

**Q.** What about the MIC [22] of the same compound?
**A.** Its MIC is 12.5 mg/L (≈ 17.8 µM).

**Q.** What about the MIC [23] of the same compound?
**A.** The MIC was 3.12 mg/L (≈ 4.45 µM).

**Q.** And the MIC [24]?
**A.** Its MIC is 3.12 mg/L (≈ 4.45 µM).

**Q.** What about the MIC (Staphylococcus aureus) of the same compound?
**A.** Its MIC is 0.78 mg/L (≈ 1.11 µM).

**Q.** What about the MIC (Streptococcus sp. 80) of the same compound?
**A.** The MIC was 1.56 mg/L (≈ 2.22 µM).

**Q.** What about the ED50 ([25]; C203, po, read-out: ED50 Oral) of the same compound?
**A.** The ED50 was over 100 mg/kg.

**Q.** And the ED50 ([25]; C203, sc, read-out: ED50 Subcutaneous)?
**A.** The ED50 was over 25 mg/kg.
